Assay results: patent US9902728B2, “Pyrrolo and pyrazolopyrimidines as ubiquitin-specific protease 7 inhibitors” (Forma Therapeutics, Inc., priority 2014, dated 2018)
Where two headings read alike, the source gives them in different places.

Target: T1, USP7 (Homo sapiens, UniProt Q93009)
T1 construct: USP7, construct USP7 (208-1102) 6*His, Viva Biotech; 6xHis (C); purchased Viva Biotech
Assay: USP7 Assay A (Ubitquin-Rhodamine 110 Assay)
Type: biochemical
Conditions: read-out: USP7_IC50
Summary of the method: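 Enzyme and compound sat together for 30 min before Ub-Rh110 was added, in buffer of 20 mM Tris-HCl (pH 8.0), 1 mM GSH, 0.03% BGG and 0.01% Triton X-100.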

[1] = USP7 assay A and B (table does not say which assay per compound)
[2] = USP7 activity in USP7 assay A and B (table does not say which assay per compound)

T1 sequence (Q93009 208-1102): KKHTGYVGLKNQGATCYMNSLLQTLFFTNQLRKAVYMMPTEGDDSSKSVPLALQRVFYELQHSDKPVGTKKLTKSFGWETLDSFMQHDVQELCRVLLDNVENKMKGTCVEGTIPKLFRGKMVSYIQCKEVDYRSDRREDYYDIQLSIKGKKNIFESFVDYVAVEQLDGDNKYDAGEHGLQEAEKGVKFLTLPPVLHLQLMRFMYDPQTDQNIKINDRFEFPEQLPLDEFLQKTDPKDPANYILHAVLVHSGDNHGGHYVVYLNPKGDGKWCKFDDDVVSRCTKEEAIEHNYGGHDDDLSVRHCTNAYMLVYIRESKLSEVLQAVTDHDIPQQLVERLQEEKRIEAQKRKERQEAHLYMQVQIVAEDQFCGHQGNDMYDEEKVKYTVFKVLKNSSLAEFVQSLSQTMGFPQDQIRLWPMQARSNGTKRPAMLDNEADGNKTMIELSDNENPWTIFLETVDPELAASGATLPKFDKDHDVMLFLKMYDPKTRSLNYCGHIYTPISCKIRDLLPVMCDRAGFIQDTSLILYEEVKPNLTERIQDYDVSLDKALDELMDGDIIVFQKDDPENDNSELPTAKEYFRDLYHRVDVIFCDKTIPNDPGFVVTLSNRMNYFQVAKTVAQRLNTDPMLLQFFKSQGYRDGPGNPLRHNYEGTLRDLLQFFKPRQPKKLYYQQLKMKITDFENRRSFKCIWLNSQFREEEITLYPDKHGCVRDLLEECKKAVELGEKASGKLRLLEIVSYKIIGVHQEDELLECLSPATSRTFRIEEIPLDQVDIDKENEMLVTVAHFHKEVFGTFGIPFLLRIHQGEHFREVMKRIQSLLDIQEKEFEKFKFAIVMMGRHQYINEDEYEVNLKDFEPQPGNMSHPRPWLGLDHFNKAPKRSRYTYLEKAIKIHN

SMILES: O=C(N1CCC(O)(Cn2cnc3c(cnn3-c3ccccc3)c2=O)CC1)C12CC(C(F)(F)F)(C1)C2 [Compound I-290]
- IC50 [1]: 1000 to 10000 nM

SMILES: O=C(c1cnc(C2CC2)o1)N1CCC(O)(Cn2cnc3c(cnn3-c3ccc(-c4ccccc4)cc3)c2=O)CC1 [Compound I-1659]
- IC50 [1]: 200 to 1000 nM

SMILES: CN1Cc2cnn(-c3ccc(C(=O)N4CCC(O)(Cn5cnc6c(cnn6-c6ccc(F)cc6)c5=O)CC4)cc3)c2C1 [Compound I-1000]
- IC50 [2]: 1000 to 10000 nM

SMILES: CC(O)(c1ccc(C(=O)N2CCC(O)(Cn3cnc4c(cnn4-c4ccc(F)cc4)c3=O)CC2)cc1)C(F)(F)F (stereo not drawn) [Compound I-526]
- IC50 [1]: 1000 to 10000 nM

SMILES: O=C(C1CC1)N1CCC(O)(Cn2cnc3c(cnn3-c3ccc(NS(=O)(=O)C4CC4)cc3)c2=O)CC1 [Compound I-1432]
- IC50 [1]: 1000 to 10000 nM

SMILES: O=C(c1cnn(C2CC2)c1)N1CCC(O)(Cn2cnc3c(cnn3-c3ccc(Cl)cc3)c2=O)CC1 [Compound I-1095]
- IC50 [2]: 200 to 1000 nM

SMILES: O=C(C1CC(Nc2ccccn2)C1)N1CCC(O)(Cn2cnc3c(cnn3-c3ccc(F)cc3)c2=O)CC1 (stereo not drawn) [Compound I-1035]
- IC50 [2]: 200 to 1000 nM

SMILES: O=C(c1ccc(-n2ccnn2)cc1)N1CCC(O)(Cn2cnc3c(cnn3-c3ccc(Cl)cc3)c2=O)CC1 [Compound I-1128]
- IC50 [1]: 200 to 1000 nM

SMILES: Cc1ncc(C(=O)N2CCC(O)(Cn3cnc4c(cnn4-c4ccc(OC5CCC(F)(F)CC5)cc4)c3=O)CC2)o1 [Compound I-1134]
- IC50 [2]: 200 to 1000 nM

SMILES: O=C(C1CCC(Oc2cccc(F)n2)CC1)N1CCC(O)(Cn2cnc3c(cnn3-c3ccccc3)c2=O)CC1 (stereo not drawn) [Compound I-742]
- IC50 [2]: 200 to 1000 nM

SMILES: Cn1ncc2ccc(-c3ccc(-n4ncc5c(=O)n(CC6(O)CCN(C(=O)C7CC7)CC6)cnc54)cc3)cc21 [Compound I-1764]
- IC50 [2]: 1000 to 10000 nM

SMILES: CS(=N)(=O)c1ccc(-n2ncc3c(=O)n(CC4(O)CCN(C(=O)c5ccc(F)cc5)CC4)cnc32)cc1 (single isomer, unassigned) [Compound I-997, 5-((1-(4-fluorobenzoyl)-4-hydroxypiperidin-4-yl)methyl)-1-(4-(S-methylsulfonimidoyl)phenyl)-1,5-dihydro-4H-pyrazolo[3,4-d]pyrimidin-4-one]
- IC50 [1]: 1000 to 10000 nM

SMILES: O=C(C1CC1)N1CCC(O)(Cn2cnc3c(cnn3-c3cccc(N4CCNCC4)c3)c2=O)CC1 [Compound I-498]
- IC50 [1]: < 200 nM

SMILES: Cc1cc(OC2CCC(C(=O)N3CCC(O)(Cn4cnc5c(cnn5-c5ccc(F)cc5)c4=O)CC3)CC2)no1 (stereo not drawn) [Compound I-755]
- IC50 [2]: 200 to 1000 nM

SMILES: COCCN(C)Cc1ccc(-n2ncc3c(=O)n(CC4(O)CCN(C(=O)C5CC5)CC4)cnc32)cc1 [Compound I-434]
- IC50 [1]: 1000 to 10000 nM

SMILES: C=CC(=O)N1CC[C@]1(C)C(=O)N1CCC(O)(Cn2cnc3c(cnn3-c3ccc(-c4ccccc4)cc3)c2=O)CC1 [Compound I-660]
- IC50 [2]: 200 to 1000 nM

SMILES: O=C(c1ccc(F)c(Cl)c1)N1CCC(O)(Cn2cnc3c(cnn3-c3ccccc3)c2=O)CC1 [Compound I-210]
- IC50 [1]: 1000 to 10000 nM

SMILES: CNC(=O)Nc1ccc(-n2ncc3c(=O)n(CC4(O)CCN(C(=O)C5CC5)CC4)cnc32)cc1 [Compound I-506]
- IC50 [1]: 1000 to 10000 nM

SMILES: O=C(c1ccc(Cl)cc1Cl)N1CCC(O)(Cn2cnc3c(cnn3-c3ccc(F)cc3)c2=O)CC1 [Compound I-317]
- IC50 [1]: 200 to 1000 nM

SMILES: CN1CCN(c2ccn(-c3ccc(-n4ncc5c(=O)n(CC6(O)CCN(C(=O)C7CC7)CC6)cnc54)cc3)n2)CC1 [Compound I-818]
- IC50 [2]: < 200 nM

SMILES: CN1CC(Oc2ccc(-n3ncc4c(=O)n(CC5(O)CCN(C(=O)c6ccc(F)cc6)CC5)cnc43)cc2)C1 [Compound I-692]
- IC50 [2]: < 200 nM

SMILES: CC(=O)NC1CCC(C(=O)N2CCC(O)(Cn3cnc4c(cnn4-c4ccc(F)cc4)c3=O)CC2)CC1 (stereo not drawn) [Compound I-924]
- IC50 [2]: 1000 to 10000 nM

SMILES: O=C(Nc1ccc(-n2ncc3c(=O)n(CC4(O)CCN(C(=O)C5CC5)CC4)cnc32)cc1)Nc1cccnc1 [Compound I-1448]
- IC50 [1]: 1000 to 10000 nM

SMILES: COCCN(C)Cc1cccc(-n2ncc3c(=O)n(CC4(O)CCN(C(=O)C5CC5)CC4)cnc32)c1 [Compound I-449]
- IC50 [1]: 1000 to 10000 nM

SMILES: O=C(C1CC1)N1CCC(O)(Cn2cnc3c(cnn3-c3ccc(-c4ccc(O[C@H]5CCNC5)cc4)cc3)c2=O)CC1 [Compound I-841]
- IC50 [1]: 200 to 1000 nM

SMILES: COc1ccc(C(=O)N2CCC(O)(Cn3cnc4c(cnn4-c4ccc(F)cc4)c3=O)CC2)cc1 [Compound I-267]
- IC50 [1]: 200 to 1000 nM

SMILES: Cn1ncc2c(=O)n(CC3(O)CCN(C(=O)CC(c4ccccc4)C(F)F)CC3)cnc21 (stereo not drawn) [Compound I-147]
- IC50 [1]: 1000 to 10000 nM

SMILES: O=C(c1ccc(-c2cnn3c2OCCC3)cc1)N1CCC(O)(Cn2cnc3c(cnn3-c3ccc(F)cc3)c2=O)CC1 [Compound I-551]
- IC50 [2]: 200 to 1000 nM

SMILES: CC1(C(=O)N2CCC(O)(Cn3cnc4c(cnn4-c4ccc(N5CC(C(C)(C)O)C5)cc4)c3=O)CC2)CC1 [Compound I-1674]
- IC50 [2]: 200 to 1000 nM

SMILES: Cc1cc(N[C@H]2CC[C@@H](C(=O)N3CCC(O)(Cn4cnc5c(cnn5-c5ccc(F)cc5)c4=O)CC3)CC2)no1 [Compound I-807]
- IC50 [2]: 1000 to 10000 nM

SMILES: CC(C)n1ncc2c(=O)n(CC3(O)CCN(C(=O)c4ccc(Oc5ccccc5)cc4)CC3)cnc21 [Compound I-62]
- IC50 [1]: > 10000 nM

SMILES: Nc1cc(-n2ncc3c(=O)n(CC4(O)CCN(C(=O)c5ccc(F)cc5)CC4)cnc32)ccc1F [Compound I-635]
- IC50 [1]: 1000 to 10000 nM

SMILES: Cn1ncc2c(=O)n(CC3(O)CCN(C(=O)c4ccc5c(c4)CCN(c4ccccc4)C5)CC3)cnc21 [Compound I-115]
- IC50 [1]: 1000 to 10000 nM

SMILES: CN1CCC(Oc2ccc(-c3ccc(-n4ncc5c(=O)n(CC6(O)CCN(C(=O)C7CC7)CC6)cnc54)cc3)cc2)C1 (stereo not drawn) [Compound I-678]
- IC50 [1]: 200 to 1000 nM

SMILES: Cc1ccc(-n2ncc3c(=O)n(CC4(O)CCN(C(=O)C[C@H](c5ccccc5)C(F)(F)F)CC4)cnc32)cc1 [Compound I-144]
- IC50 [1]: 1000 to 10000 nM

SMILES: O=C(C1CC1)N1CCC(O)(Cn2cnc3c(cnn3-c3cccc(Nc4ccc5ncsc5c4)c3)c2=O)CC1 [Compound I-1257]
- IC50 [1]: 200 to 1000 nM

SMILES: CC1(C(=O)N2CCC(O)(Cn3cnc4c(cnn4-c4cccc(OC5CCC(F)(F)CC5)c4)c3=O)CC2)CC1 [Compound I-1047]
- IC50 [2]: < 200 nM

SMILES: COc1ccc(OC2CCC(C(=O)N3CCC(O)(Cn4cnc5c(cnn5-c5ccc(F)cc5)c4=O)CC3)CC2)nc1 (stereo not drawn) [Compound I-1019]
- IC50 [2]: 200 to 1000 nM

SMILES: COc1ccc(Nc2ccc(-n3ncc4c(=O)n(CC5(O)CCN(C(=O)C6CC6)CC5)cnc43)cc2)cn1 [Compound I-1191]
- IC50 [1]: 1000 to 10000 nM

SMILES: C[C@@H](CC(=O)N1CCC(O)(Cn2cnc3c(cnn3-c3ccccc3)c2=O)CC1)n1cccc1 [Compound I-178]
- IC50 [1]: 1000 to 10000 nM

SMILES: CC(=O)Nc1cccc(C(=O)N2CCC(O)(Cn3cnc4c(cnn4-c4ccccc4)c3=O)CC2)c1 [Compound I-181]
- IC50 [1]: 1000 to 10000 nM

SMILES: CC1(C(=O)N2CCC(O)(Cn3cnc4c(cnn4-c4ccc(NC5CCC(F)(F)CC5)cc4)c3=O)CC2)CC1 [Compound I-786]
- IC50 [2]: 200 to 1000 nM

SMILES: Cn1ncc2c(=O)n(CC3(O)CCN(C(=O)C[C@@H](c4ccccc4)C(F)(F)F)CC3)cnc21 [Compound I-861]
- IC50 [1]: > 10000 nM

SMILES: CN1CCN(c2ccc(-n3ncc4c(=O)n(CC5(O)CCN(C(=O)CC(C(F)F)n6cccn6)CC5)cnc43)cc2)CC1 (stereo not drawn) [Compound I-825]
- IC50 [2]: < 200 nM

SMILES: Cc1cc(OC2CCC(C(=O)N3CCC(O)(Cn4cnc5c(cnn5-c5ccc(F)cc5)c4=O)CC3)CC2)no1 (stereo not drawn) [Compound I-756]
- IC50 [2]: 200 to 1000 nM

SMILES: O=C(C1CC1)N1CCC(O)(Cn2cnc3c(cnn3-c3cccc(-c4cc(F)ccc4CO)c3)c2=O)CC1 [Compound I-403]
- IC50 [1]: 1000 to 10000 nM

SMILES: O=C(C[C@H](C(F)F)n1cc(Cl)cn1)N1CCC(O)(Cn2cnc3c(cnn3-c3ccc(F)cc3)c2=O)CC1 [Compound I-733]
- IC50 [2]: 200 to 1000 nM

SMILES: COc1ccc(C(=O)N2CCC(O)(Cn3cnc4c(cnn4-c4ccccc4)c3=O)CC2)cc1Cl [Compound I-214]
- IC50 [1]: 200 to 1000 nM

SMILES: Cn1ccc(OC2CCC(C(=O)N3CCC(O)(Cn4cnc5c(cnn5-c5ccc(F)cc5)c4=O)CC3)CC2)n1 (stereo not drawn) [Compound I-753]
- IC50 [2]: 200 to 1000 nM

SMILES: O=C(C[C@@H](C(F)F)n1cccn1)N1CCC(O)(Cn2cnc3c(cnn3-c3ccc(F)cc3)c2=O)CC1 [Compound I-518]
- IC50 [1]: < 200 nM

SMILES: O=C(c1ccc(Oc2ccccn2)cc1)N1CCC(O)(Cn2cnc3c(cnn3-c3ccc(F)cc3)c2=O)CC1 [Compound I-538]
- IC50 [1]: 1000 to 10000 nM

SMILES: O=C(C[C@@H](C(F)F)n1ccc(F)n1)N1CCC(O)(Cn2cnc3c(cnn3-c3ccc(Cl)cc3)c2=O)CC1 [Compound I-1166]
- IC50 [2]: < 200 nM

SMILES: O=C(C[C@@H](C(F)F)n1ccc(F)n1)N1CCC(O)(Cn2cnc3c(cnn3-c3cccc(N4CC5CC5C4)c3)c2=O)CC1 (stereo partly drawn) [Compound I-790]
- IC50 [2]: < 200 nM

SMILES: O=C(C[C@H](C(F)F)n1ccc(F)n1)N1CCC(O)(Cn2cnc3c(cnn3-c3ccc(N4CC5CC5C4)cc3)c2=O)CC1 (stereo partly drawn) [Compound I-785]
- IC50 [2]: 200 to 1000 nM

SMILES: CC1(C(=O)N2CCC(O)(Cn3cnc4c(cnn4-c4ccc(N5CCC6(CC5)COC6)cc4)c3=O)CC2)CC1 [Compound I-1716]
- IC50 [2]: < 200 nM

SMILES: CC1(C(=O)N2CCC(O)(Cn3cnc4c(cnn4-c4ccc(N5CCC(F)(F)CC5)cc4)c3=O)CC2)CC1 [Compound I-1728]
- IC50 [2]: 200 to 1000 nM

SMILES: Cc1ccc(-n2ncc3c(=O)n(CC4(O)CCN(C(=O)c5ccc(Oc6ccc(OCCO)cn6)cc5)CC4)cnc32)cc1 [Compound I-1160]
- IC50 [2]: 200 to 1000 nM

SMILES: O=C(C1CC1)N1CCC(O)(Cn2cnc3c(cnn3-c3ccc(-c4ccc(OC5CCNC5)cc4)cc3)c2=O)CC1 (stereo not drawn) [Compound I-675]
- IC50 [1]: 200 to 1000 nM

SMILES: O=C(C[C@H](C(F)F)n1ccc(F)n1)N1CCC(O)(Cn2cnc3c(cnn3-c3cccc(N4CC5CC5C4)c3)c2=O)CC1 (stereo partly drawn) [Compound I-791]
- IC50 [2]: 200 to 1000 nM

SMILES: CC1(C(=O)N2CCC(O)(Cn3cnc4c(cnn4-c4cccc(N5CCC(F)(F)CC5)c4)c3=O)CC2)CC1 [Compound I-1675]
- IC50 [2]: < 200 nM

SMILES: O=C(c1ccc(OC(F)F)cc1)N1CCC(O)(Cn2cnc3c(cnn3-c3ccc(F)cc3)c2=O)CC1 [Compound I-306]
- IC50 [1]: 1000 to 10000 nM

SMILES: Cc1ncc(C(=O)N2CCC(O)(Cn3cnc4c(cnn4-c4ccc(C5CC5)cc4)c3=O)CC2)o1 [Compound I-799]
- IC50 [2]: 200 to 1000 nM

SMILES: O=C(C1CCC(Oc2ncccn2)CC1)N1CCC(O)(Cn2cnc3c(cnn3-c3ccc(F)cc3)c2=O)CC1 (stereo not drawn) [Compound I-748]
- IC50 [2]: 200 to 1000 nM
